{"source": "ChEMBL document CHEMBL2177083", "about": "“Enhanced in vitro biological activity of synthetic 2-(2-pyridyl) ethyl isothiocyanate compared to natural 4-(methylsulfinyl) butyl isothiocyanate” (J Med Chem, 2012)", "key": {"[1]": {"test": "Induction of p21 protein expression in human PNT1A cells at 50 uM incubated for 8 hrs by Western blotting", "assay_type": "cell-based"}, "[2]": {"test_system": "PC-3", "test": "Induction of p21 protein expression in human PC3 cells at 50 uM incubated for 8 hrs by Western blotting relative to untreated control", "assay_type": "functional, cell-based"}, "[3]": {"test_system": "PC-3", "test": "Cytotoxicity against human PC3 cells incubated for 24 hrs by WST1 dye reduction assay", "conditions": "PC-3, 24 h"}, "[4]": {"test": "Antiproliferative activity against human PNT1A cells at 50 uM incubated for 24 hrs by BrdU incorporation assay", "assay_type": "cell-based"}, "[5]": {"test_system": "PNT1A", "test": "Increase in cytokine-cytokine receptor interaction related gene expression in human PNT1A cells at 10 uM incubated for 8 hrs by Affymetrix human exon array relative to untreated control", "assay_type": "functional"}, "[6]": {"test": "Binding affinity to insulin A chain N-terminal pentapeptide assessed as compound-insulin adduct formation by LC-MS method"}, "[7]": {"test_system": "PNT1A", "test": "Increase in apoptosis related gene expression in human PNT1A cells at 10 uM incubated for 8 hrs by Affymetrix human exon array relative to untreated control", "assay_type": "functional"}, "[8]": {"test_system": "PC-3", "conditions": "Homo sapiens, 25 uM", "description": "Inhibition of cell proliferation of human PC3 cells at 25 uM incubated for 24 hrs by BrdU incorporation assay"}, "[9]": {"test_system": "HepG2", "test": "Cytotoxicity against human HepG2 cells incubated for 24 hrs by WST1 dye reduction assay", "conditions": "HepG2, 24 h"}, "[10]": {"test_system": "Caco-2", "test": "Cytotoxicity against human Caco2 cells incubated for 24 hrs by WST1 dye reduction assay", "conditions": "Caco-2, 24 h"}, "[11]": {"test": "Induction of p21 protein expression in human PNT1A cells at 10 uM incubated for 8 hrs by Western blotting", "assay_type": "cell-based"}, "[12]": {"test_system": "PNT1A", "test": "Increase in systemic lupus erythematosus related gene expression in human PNT1A cells at 10 uM incubated for 8 hrs by Affymetrix human exon array relative to untreated control", "assay_type": "functional"}, "[13]": {"test": "Binding affinity to insulin B chain N-terminal pentapeptide assessed as compound-insulin adduct formation by LC-MS method"}, "[14]": {"test_system": "DU-145", "test": "Cytotoxicity against human DU145 cells incubated for 24 hrs by WST1 dye reduction assay", "conditions": "DU-145, 24 h"}, "[15]": {"test_system": "PC-3", "test": "Increase in lysine degradation related gene expression in human PC3 cells at 10 uM incubated for 8 hrs by Affymetrix human exon array relative to untreated control", "assay_type": "functional"}, "[16]": {"test_system": "PNT1A", "test": "Increase in glutathione metabolism related gene expression in human PNT1A cells at 10 uM incubated for 8 hrs by Affymetrix human exon array relative to untreated control", "assay_type": "functional"}, "[17]": {"test_system": "PC-3", "test": "Increase in systemic lupus erythematosus related gene expression in human PC3 cells at 10 uM incubated for 8 hrs by Affymetrix human exon array relative to untreated control", "assay_type": "functional"}, "[18]": {"test_system": "PNT1A", "test": "Increase in glycine, serine, and threonine metabolism related gene expression in human PNT1A cells at 10 uM incubated for 8 hrs by Affymetrix human exon array relative to untreated control", "assay_type": "functional"}, "[19]": {"test_system": "PNT1A", "test": "Increase in axon guidance related gene expression in human PNT1A cells at 10 uM incubated for 8 hrs by Affymetrix human exon array relative to untreated control", "assay_type": "functional"}, "[20]": {"test_system": "PC-3", "test": "Increase in TGF-beta signaling pathway related gene expression in human PC3 cells at 10 uM incubated for 8 hrs by Affymetrix human exon array relative to untreated control", "assay_type": "functional"}, "[21]": {"test_system": "PC-3", "test": "Increase in mismatch repair related gene expression in human PC3 cells at 10 uM incubated for 8 hrs by Affymetrix human exon array relative to untreated control", "assay_type": "functional"}, "[22]": {"test_system": "PC-3", "test": "Increase in one carbon pool by folate related gene expression in human PC3 cells at 10 uM incubated for 8 hrs by Affymetrix human exon array relative to untreated control", "assay_type": "functional"}, "[23]": {"test_system": "PC-3", "test": "Increase in colorectal cancer related gene expression in human PC3 cells at 10 uM incubated for 8 hrs by Affymetrix human exon array relative to untreated control", "assay_type": "functional"}, "[24]": {"test_system": "PC-3", "test": "Induction of p21 protein expression in human PC3 cells at 10 uM incubated for 8 hrs by Western blotting in presence of 50 uM PI3K inhibitor LY294002 relative to untreated control", "assay_type": "functional"}, "[25]": {"test_system": "PC-3", "test": "Increase in glycolysis/gluconeogenesis related gene expression in human PC3 cells at 10 uM incubated for 8 hrs by Affymetrix human exon array relative to untreated control", "assay_type": "functional"}, "[26]": {"test_system": "PC-3", "test": "Increase in cell cycle related gene expression in human PC3 cells at 10 uM incubated for 8 hrs by Affymetrix human exon array relative to untreated control", "assay_type": "functional"}, "[27]": {"test_system": "PC-3", "test": "Increase in DNA replication related gene expression in human PC3 cells at 10 uM incubated for 8 hrs by Affymetrix human exon array relative to untreated control", "assay_type": "functional"}, "[28]": {"test_system": "PC-3", "test": "Increase in p53 signaling pathway related gene expression in human PC3 cells at 10 uM incubated for 8 hrs by Affymetrix human exon array relative to untreated control", "assay_type": "functional"}, "[29]": {"test_system": "PC-3", "test": "Increase in chronic myeloid leukemia related gene expression in human PC3 cells at 10 uM incubated for 8 hrs by Affymetrix human exon array relative to untreated control", "assay_type": "functional"}, "[30]": {"test_system": "PC-3", "test": "Increase in ErbB signaling pathway related gene expression in human PC3 cells at 10 uM incubated for 8 hrs by Affymetrix human exon array relative to untreated control", "assay_type": "functional"}, "[31]": {"test_system": "PC-3", "test": "Increase in apoptosis gene expression in human PC3 cells at 10 uM incubated for 8 hrs by Affymetrix human exon array relative to untreated control", "assay_type": "functional"}, "[32]": {"test_system": "PC-3", "test": "Increase in aminoacyl-tRNA biosynthesis related gene expression in human PC3 cells at 10 uM incubated for 8 hrs by Affymetrix human exon array relative to untreated control", "assay_type": "functional"}, "[33]": {"test_system": "PC-3", "test": "Inhibition of cell proliferation of human PC3 cells at 10 uM incubated for 24 hrs by BrdU incorporation assay", "assay_type": "functional", "conditions": "PC-3, 24 h"}, "[34]": {"test_system": "PC-3", "test": "Increase in alanine and aspartate metabolism related gene expression in human PC3 cells at 10 uM incubated for 8 hrs by Affymetrix human exon array relative to untreated control", "assay_type": "functional"}, "[35]": {"test_system": "PC-3", "test": "Increase in ABC transporters related gene expression in human PC3 cells at 10 uM incubated for 8 hrs by Affymetrix human exon array relative to untreated control", "assay_type": "functional"}, "[36]": {"test_system": "PC-3", "test": "Increase in homologous recombination related gene expression in human PC3 cells at 10 uM incubated for 8 hrs by Affymetrix human exon array relative to untreated control", "assay_type": "functional"}, "[37]": {"test_system": "PC-3", "test": "Increase in small cell lung cancer related gene expression in human PC3 cells at 10 uM incubated for 8 hrs by Affymetrix human exon array relative to untreated control", "assay_type": "functional"}, "[38]": {"test_system": "PC-3", "test": "Increase in pyrimidine metabolism related gene expression in human PC3 cells at 10 uM incubated for 8 hrs by Affymetrix human exon array relative to untreated control", "assay_type": "functional"}, "[39]": {"test_system": "PC-3", "test": "Increase in epithelial cell signaling in Helicobacter pylori infection related gene expression in human PC3 cells at 10 uM incubated for 8 hrs pre-treated for 1 hr with 50 uM PI3K inhibitor LY294002 by Affymetrix human exon array relative to untreated control", "assay_type": "functional"}, "[40]": {"test_system": "PC-3", "test": "Increase in glioma related gene expression in human PC3 cells at 10 uM incubated for 8 hrs by Affymetrix human exon array relative to untreated control", "assay_type": "functional"}, "[41]": {"test_system": "PC-3", "test": "Increase in base excision repair related gene expression in human PC3 cells at 10 uM incubated for 8 hrs by Affymetrix human exon array relative to untreated control", "assay_type": "functional"}, "[42]": {"test_system": "PC-3", "test": "Increase in nucleotide excision repair related gene expression in human PC3 cells at 10 uM incubated for 8 hrs by Affymetrix human exon array relative to untreated control", "assay_type": "functional"}, "[43]": {"test_system": "PC-3", "test": "Increase in prostate cancer related gene expression in human PC3 cells at 10 uM incubated for 8 hrs by Affymetrix human exon array relative to untreated control", "assay_type": "functional"}}, "note": "Active and inactive are the calls of the source. The rule behind the calls is not given here."}
{"smiles": "O=c1cc(N2CCOCC2)oc2c(-c3ccccc3)cccc12", "note": "[LY-294002]", "values": [{"measurement": "Activity", "setting": "[1]", "value": "Toxic"}, {"measurement": "Activity", "setting": "[2]", "value": "Active"}]}
{"smiles": "C[S+]([O-])CCCCN=C=S", "note": "(stereo not drawn) [SULFORAPHANE]", "values": [{"measurement": "IC50", "setting": "[3]", "value": 32.4, "unit": "µM"}, {"measurement": "Activity", "setting": "[4]", "value": "Non-toxic"}, {"measurement": "fold change (FC)", "setting": "[5]", "value": 3.3}, {"measurement": "Activity", "setting": "[6]", "value": "Active"}, {"measurement": "fold change (FC)", "setting": "[7]", "value": 4.8}, {"measurement": "inhibition", "setting": "[8]", "value": "Active"}, {"measurement": "IC50", "setting": "[9]", "value": 24.9, "unit": "µM"}, {"measurement": "IC50", "setting": "[10]", "value": 79.8, "unit": "µM"}, {"measurement": "Activity", "setting": "[11]", "value": "Non-toxic"}, {"measurement": "fold change (FC)", "setting": "[12]", "value": 4.3}, {"measurement": "Activity", "setting": "[13]", "value": "Active"}, {"measurement": "IC50", "setting": "[14]", "value": 13.8, "unit": "µM"}]}
{"smiles": "S=C=NCCc1ccccn1", "values": [{"measurement": "IC50", "setting": "[3]", "value": 12.8, "unit": "µM"}, {"measurement": "fold change (FC)", "setting": "[15]", "value": 1.8}, {"measurement": "fold change (FC)", "setting": "[16]", "value": 2.8}, {"measurement": "fold change (FC)", "setting": "[17]", "value": 1.8}, {"measurement": "fold change (FC)", "setting": "[18]", "value": 3.1}, {"measurement": "fold change (FC)", "setting": "[19]", "value": 1.9}, {"measurement": "Activity", "setting": "[4]", "value": "Non-toxic"}, {"measurement": "fold change (FC)", "setting": "[20]", "value": 1.5}, {"measurement": "fold change (FC)", "setting": "[21]", "value": 2.6}, {"measurement": "fold change (FC)", "setting": "[22]", "value": 2.8}, {"measurement": "fold change (FC)", "setting": "[23]", "value": 1.5}, {"measurement": "fold change (FC)", "setting": "[24]", "value": 8}, {"measurement": "Activity", "setting": "[6]", "value": "Active"}, {"measurement": "fold change (FC)", "setting": "[25]", "value": 1.6}, {"measurement": "fold change (FC)", "setting": "[26]", "value": 2.6}, {"measurement": "fold change (FC)", "setting": "[27]", "value": 3.1}, {"measurement": "fold change (FC)", "setting": "[28]", "value": 2.1}, {"measurement": "fold change (FC)", "setting": "[29]", "value": 1.9}, {"measurement": "fold change (FC)", "setting": "[30]", "value": 1.6}, {"measurement": "fold change (FC)", "setting": "[7]", "value": 2.5}, {"measurement": "fold change (FC)", "setting": "[31]", "value": 1.9}, {"measurement": "fold change (FC)", "setting": "[32]", "value": 1.8}, {"measurement": "inhibition at 10 µM", "setting": "[33]", "value": "> 80", "unit": "%"}, {"measurement": "fold change (FC)", "setting": "[34]", "value": 2}, {"measurement": "fold change (FC)", "setting": "[35]", "value": 1.6}, {"measurement": "fold change (FC)", "setting": "[36]", "value": 2.4}, {"measurement": "IC50", "setting": "[9]", "value": 15.3, "unit": "µM"}, {"measurement": "fold change (FC)", "setting": "[37]", "value": 1.6}, {"measurement": "fold change (FC)", "setting": "[38]", "value": 1.6}, {"measurement": "fold change (FC)", "setting": "[39]", "value": 1.6}, {"measurement": "IC50", "setting": "[10]", "value": 15.2, "unit": "µM"}, {"measurement": "Activity", "setting": "[11]", "value": "Non-toxic"}, {"measurement": "fold change (FC)", "setting": "[12]", "value": 3.6}, {"measurement": "fold change (FC)", "setting": "[40]", "value": 1.9}, {"measurement": "fold change (FC)", "setting": "[41]", "value": 2.1}, {"measurement": "Activity", "setting": "[13]", "value": "Active"}, {"measurement": "IC50", "setting": "[14]", "value": 4.44, "unit": "µM"}, {"measurement": "fold change (FC)", "setting": "[42]", "value": 1.8}, {"measurement": "fold change (FC)", "setting": "[43]", "value": 1.9}]}
